Test results reported in article PMC4854315, “Discovery of a novel allosteric inhibitor-binding site in ERK5: comparison with the canonical kinase hinge ATP-binding site” (Acta Crystallographica. Section D, Structural Biology, 2016).

Tests used:
Experiment in all cases: Z'-LYTE kinase panel
Format in all cases: biochemical
[1] = target: T1, PRKG2 (PKG2) (Homo sapiens, UniProt Q13237)
T1 construct: purchased ThermoFisher (SelectScreen, Z'-LYTE)
T1 sequence (Q13237 1-762): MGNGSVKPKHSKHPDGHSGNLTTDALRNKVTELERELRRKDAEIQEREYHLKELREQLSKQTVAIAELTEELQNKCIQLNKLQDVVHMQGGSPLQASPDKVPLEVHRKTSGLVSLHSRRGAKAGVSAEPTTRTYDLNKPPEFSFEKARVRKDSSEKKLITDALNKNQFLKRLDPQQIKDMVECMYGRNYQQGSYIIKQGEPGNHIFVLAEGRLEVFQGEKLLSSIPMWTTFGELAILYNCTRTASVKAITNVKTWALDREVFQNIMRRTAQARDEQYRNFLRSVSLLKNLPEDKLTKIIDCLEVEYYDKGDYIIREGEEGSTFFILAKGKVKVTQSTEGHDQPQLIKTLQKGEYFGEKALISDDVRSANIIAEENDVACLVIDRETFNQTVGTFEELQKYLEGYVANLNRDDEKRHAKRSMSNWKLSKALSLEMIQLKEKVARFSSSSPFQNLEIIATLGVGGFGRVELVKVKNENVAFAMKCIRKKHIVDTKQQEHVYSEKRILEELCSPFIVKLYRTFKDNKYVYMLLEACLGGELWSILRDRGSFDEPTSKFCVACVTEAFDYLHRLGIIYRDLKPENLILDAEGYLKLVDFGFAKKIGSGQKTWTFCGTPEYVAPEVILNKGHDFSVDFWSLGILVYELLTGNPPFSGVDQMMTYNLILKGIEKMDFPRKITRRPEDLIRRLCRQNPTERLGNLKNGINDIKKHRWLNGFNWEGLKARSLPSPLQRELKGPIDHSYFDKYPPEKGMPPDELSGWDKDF
Method: (§1) Compounds 2, 3 and 5 were tested for activity against the 225 kinases in the ThermoFisher standard kinase panel. The standard Z′-LYTE assay protocol (ThermoFisher) was used to measure the percentage inhibition at 10 µM compound concentration (details are provided in the supporting information).

[2] = target: T2, HCK (Homo sapiens, UniProt P08631)
T2 construct: purchased ThermoFisher (SelectScreen, Z'-LYTE)
T2 sequence (P08631 whole entry): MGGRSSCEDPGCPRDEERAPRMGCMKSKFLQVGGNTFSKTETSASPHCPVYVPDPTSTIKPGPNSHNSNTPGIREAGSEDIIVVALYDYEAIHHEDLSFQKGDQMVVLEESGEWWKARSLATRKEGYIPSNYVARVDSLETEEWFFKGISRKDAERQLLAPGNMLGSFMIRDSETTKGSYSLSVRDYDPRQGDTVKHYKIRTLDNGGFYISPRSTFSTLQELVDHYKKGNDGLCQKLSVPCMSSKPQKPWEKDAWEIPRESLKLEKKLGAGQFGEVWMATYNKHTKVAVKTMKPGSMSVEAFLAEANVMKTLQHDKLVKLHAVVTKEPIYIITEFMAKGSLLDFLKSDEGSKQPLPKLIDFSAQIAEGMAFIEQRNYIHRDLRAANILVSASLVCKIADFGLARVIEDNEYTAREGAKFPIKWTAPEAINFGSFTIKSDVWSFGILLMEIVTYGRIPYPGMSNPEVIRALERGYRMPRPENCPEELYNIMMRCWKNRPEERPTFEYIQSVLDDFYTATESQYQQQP
Method: as §1

[3] = target: T3, STK24 (MST3) (Homo sapiens, UniProt Q9Y6E0)
T3 construct: purchased ThermoFisher (SelectScreen, Z'-LYTE)
T3 sequence (Q9Y6E0 whole entry): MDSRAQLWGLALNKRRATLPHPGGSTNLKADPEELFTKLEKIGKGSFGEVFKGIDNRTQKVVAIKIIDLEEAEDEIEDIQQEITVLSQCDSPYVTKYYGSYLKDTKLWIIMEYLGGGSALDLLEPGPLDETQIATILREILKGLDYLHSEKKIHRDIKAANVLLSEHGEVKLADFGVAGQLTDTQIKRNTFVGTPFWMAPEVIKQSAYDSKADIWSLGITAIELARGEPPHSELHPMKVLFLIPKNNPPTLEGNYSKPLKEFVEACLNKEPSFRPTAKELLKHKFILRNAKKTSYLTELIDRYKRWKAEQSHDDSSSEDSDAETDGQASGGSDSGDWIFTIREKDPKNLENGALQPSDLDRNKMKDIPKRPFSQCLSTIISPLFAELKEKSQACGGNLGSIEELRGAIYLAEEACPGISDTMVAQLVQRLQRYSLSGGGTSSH
Method: as §1

[4] = target: T4, NTRK2 (TRKB) (Homo sapiens, UniProt Q16620)
T4 construct: purchased ThermoFisher (SelectScreen, Z'-LYTE)
T4 sequence (Q16620 32-822): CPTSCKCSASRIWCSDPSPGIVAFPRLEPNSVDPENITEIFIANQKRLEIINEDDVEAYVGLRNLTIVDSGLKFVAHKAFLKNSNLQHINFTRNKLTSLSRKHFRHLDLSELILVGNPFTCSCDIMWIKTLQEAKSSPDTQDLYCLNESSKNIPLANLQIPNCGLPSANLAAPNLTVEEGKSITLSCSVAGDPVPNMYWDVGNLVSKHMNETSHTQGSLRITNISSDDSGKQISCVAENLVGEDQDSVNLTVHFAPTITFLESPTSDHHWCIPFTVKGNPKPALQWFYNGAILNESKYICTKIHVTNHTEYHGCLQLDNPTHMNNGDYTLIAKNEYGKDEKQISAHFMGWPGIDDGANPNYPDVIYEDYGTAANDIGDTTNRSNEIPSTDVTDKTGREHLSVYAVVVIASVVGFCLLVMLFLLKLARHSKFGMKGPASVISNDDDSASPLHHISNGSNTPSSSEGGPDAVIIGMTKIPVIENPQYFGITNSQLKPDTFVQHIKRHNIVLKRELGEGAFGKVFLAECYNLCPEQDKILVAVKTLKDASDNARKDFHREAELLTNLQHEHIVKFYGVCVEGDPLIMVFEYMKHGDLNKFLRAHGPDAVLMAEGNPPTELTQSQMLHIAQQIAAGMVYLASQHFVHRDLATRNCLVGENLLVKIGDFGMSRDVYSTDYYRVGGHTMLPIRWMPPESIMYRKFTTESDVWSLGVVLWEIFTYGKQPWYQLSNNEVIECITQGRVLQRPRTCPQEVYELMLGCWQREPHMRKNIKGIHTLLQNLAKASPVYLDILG
Method: as §1

[5] = target: T5, PRKCH (PKC eta) (Homo sapiens, UniProt P24723)
T5 construct: purchased ThermoFisher (SelectScreen, Z'-LYTE)
T5 sequence (P24723 whole entry): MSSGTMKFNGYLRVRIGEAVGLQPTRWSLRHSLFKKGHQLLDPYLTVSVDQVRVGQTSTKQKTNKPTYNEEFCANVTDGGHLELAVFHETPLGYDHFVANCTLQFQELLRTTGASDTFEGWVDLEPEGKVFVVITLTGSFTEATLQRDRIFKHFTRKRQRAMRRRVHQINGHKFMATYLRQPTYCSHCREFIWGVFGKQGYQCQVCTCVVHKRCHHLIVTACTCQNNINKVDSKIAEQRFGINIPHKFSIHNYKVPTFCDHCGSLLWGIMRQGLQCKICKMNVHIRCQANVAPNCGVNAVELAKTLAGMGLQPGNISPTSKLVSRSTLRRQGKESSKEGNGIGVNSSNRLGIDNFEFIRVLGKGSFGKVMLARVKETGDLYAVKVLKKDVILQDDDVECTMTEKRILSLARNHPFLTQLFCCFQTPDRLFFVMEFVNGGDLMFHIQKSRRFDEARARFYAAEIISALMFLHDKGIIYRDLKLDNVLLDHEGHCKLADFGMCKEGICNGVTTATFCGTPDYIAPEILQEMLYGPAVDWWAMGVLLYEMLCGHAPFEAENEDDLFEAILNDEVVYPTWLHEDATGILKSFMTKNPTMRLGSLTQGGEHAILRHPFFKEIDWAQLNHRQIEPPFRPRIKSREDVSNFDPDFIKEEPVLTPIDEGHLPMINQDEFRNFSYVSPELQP
Method: as §1

[6] = target: T6, JAK3 (Homo sapiens, UniProt P52333)
T6 construct: purchased ThermoFisher (SelectScreen, Z'-LYTE)
T6 sequence (P52333 1-1124): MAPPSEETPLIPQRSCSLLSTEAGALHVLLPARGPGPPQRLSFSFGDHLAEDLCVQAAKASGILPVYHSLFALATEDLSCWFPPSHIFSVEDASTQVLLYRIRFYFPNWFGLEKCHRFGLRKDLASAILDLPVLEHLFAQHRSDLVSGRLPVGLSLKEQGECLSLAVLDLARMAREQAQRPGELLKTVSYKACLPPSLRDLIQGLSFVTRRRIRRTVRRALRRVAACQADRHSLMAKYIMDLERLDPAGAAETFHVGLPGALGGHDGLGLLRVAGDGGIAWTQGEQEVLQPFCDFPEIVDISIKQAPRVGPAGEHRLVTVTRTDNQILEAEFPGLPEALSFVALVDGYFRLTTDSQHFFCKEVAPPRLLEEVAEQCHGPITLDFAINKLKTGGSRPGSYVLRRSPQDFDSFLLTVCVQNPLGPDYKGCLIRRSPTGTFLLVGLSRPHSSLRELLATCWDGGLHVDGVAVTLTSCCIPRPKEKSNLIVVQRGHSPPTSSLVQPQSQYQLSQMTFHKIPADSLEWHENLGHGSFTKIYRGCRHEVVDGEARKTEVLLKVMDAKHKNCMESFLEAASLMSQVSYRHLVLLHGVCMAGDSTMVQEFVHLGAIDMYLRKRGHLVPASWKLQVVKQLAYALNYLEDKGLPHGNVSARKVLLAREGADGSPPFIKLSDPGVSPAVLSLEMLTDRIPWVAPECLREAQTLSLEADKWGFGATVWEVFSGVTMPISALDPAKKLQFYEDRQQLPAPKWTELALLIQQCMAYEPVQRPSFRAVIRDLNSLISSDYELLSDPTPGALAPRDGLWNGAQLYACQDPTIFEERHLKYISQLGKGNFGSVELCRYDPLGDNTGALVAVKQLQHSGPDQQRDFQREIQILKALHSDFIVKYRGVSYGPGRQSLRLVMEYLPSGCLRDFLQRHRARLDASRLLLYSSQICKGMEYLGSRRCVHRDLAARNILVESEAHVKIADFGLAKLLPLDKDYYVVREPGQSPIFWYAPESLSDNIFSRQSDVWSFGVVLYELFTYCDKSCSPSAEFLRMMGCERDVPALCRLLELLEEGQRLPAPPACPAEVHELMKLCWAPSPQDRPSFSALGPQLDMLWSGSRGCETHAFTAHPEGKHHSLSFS
Method: as §1

[7] = target: T7, LCK (Homo sapiens, UniProt P06239)
T7 construct: purchased ThermoFisher (SelectScreen, Z'-LYTE)
T7 sequence (P06239 whole entry): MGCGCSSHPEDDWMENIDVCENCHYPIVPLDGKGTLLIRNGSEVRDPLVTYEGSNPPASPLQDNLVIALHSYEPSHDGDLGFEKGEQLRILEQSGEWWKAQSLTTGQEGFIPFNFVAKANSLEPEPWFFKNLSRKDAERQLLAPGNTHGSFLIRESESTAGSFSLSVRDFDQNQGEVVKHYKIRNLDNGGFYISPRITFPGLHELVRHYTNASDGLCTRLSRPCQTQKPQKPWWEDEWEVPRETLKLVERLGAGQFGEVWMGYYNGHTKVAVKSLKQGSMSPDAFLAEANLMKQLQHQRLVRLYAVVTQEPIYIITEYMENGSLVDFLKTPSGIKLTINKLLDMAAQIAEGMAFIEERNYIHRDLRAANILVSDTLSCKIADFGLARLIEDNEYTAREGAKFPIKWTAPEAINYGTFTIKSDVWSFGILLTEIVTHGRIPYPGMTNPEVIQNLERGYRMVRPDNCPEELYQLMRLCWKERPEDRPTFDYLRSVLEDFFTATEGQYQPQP
Method: as §1

[8] = target: T8, GRK7 (Homo sapiens, UniProt Q8WTQ7)
T8 construct: purchased ThermoFisher (SelectScreen, Z'-LYTE)
T8 sequence (Q8WTQ7 1-553): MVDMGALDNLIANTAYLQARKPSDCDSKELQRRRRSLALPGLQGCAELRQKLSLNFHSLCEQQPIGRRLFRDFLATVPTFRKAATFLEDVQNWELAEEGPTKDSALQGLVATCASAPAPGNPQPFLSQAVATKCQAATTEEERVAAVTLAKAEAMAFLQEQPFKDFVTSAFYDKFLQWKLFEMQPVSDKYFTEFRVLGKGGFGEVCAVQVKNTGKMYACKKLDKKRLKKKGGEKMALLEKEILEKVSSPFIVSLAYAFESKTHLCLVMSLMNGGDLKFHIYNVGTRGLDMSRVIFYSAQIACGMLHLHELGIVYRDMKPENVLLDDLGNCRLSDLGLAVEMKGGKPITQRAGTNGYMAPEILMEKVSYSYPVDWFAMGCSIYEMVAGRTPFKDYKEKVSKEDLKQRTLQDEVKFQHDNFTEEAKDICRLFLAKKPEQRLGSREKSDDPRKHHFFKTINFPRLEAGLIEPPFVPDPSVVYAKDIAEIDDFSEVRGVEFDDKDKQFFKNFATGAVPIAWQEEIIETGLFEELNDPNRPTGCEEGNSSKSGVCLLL
Method: as §1

| Compound | inhibition at 10 µM [1] | inhibition at 10 µM [2] | inhibition at 10 µM [3] | inhibition at 10 µM [4] | inhibition at 10 µM [5] | inhibition at 10 µM [6] | inhibition at 10 µM [7] | inhibition at 10 µM [8] | PRKG2 (PKG2) % Inhibition ([1]; 10 µM compound, ATP Km app) | HCK % Inhibition ([2]; 10 µM compound, ATP Km app) | STK24 (MST3) % Inhibition ([3]; 10 µM compound, ATP Km app) | NTRK2 (TRKB) % Inhibition ([4]; 10 µM compound, ATP Km app) | PRKCH (PKC eta) % Inhibition ([5]; 10 µM compound, ATP Km app) | JAK3 % Inhibition ([6]; 10 µM compound, ATP Km app) | LCK % Inhibition ([7]; 10 µM compound, ATP Km app) | GRK7 % Inhibition ([8]; 10 µM compound, ATP Km app) |
| --- | --- | --- | --- | --- | --- | --- | --- | --- | --- | --- | --- | --- | --- | --- | --- | --- |
| Cc1ncc(-c2nc(Nc3ccc(C(=O)NCCN4CCCCC4)cc3)ncc2F)n1C(C)C [Compound 3] | 95% | 48% | 89% | 87% | 54% | 88% | 94% | 40% | – | – | – | – | – | – | – | – |
| Cc1cc(Nc2nc(N)nn2C(=O)NC(C)C)ccc1Cl [Compound 5] | -9% | 16% | 27% | 29% | -18% | 45% | 29% | 10% | – | – | – | – | – | – | – | – |
| XMD8-92 [Compound 2, reference compound] | – | – | – | – | – | – | – | – | 43% | 14% | 30% | 81% | 41% | 80% | 15% | 39% |
